Source: ChEMBL document CHEMBL4038296, “A bromopyrrole-containing diterpene alkaloid from the Okinawan marine sponge Agelas nakamurai activates the insulin pathway in Huh-7 human hepatoma cells by inhibiting protein tyrosine phosphatase 1B” (Bioorg Med Chem Lett, 2017)
The source made the active and inactive calls. The calls are words filed in the database; no cut-off is given here.

Legend:
[1] = biological target: Dual specificity protein phosphatase 3 (Homo sapiens, UniProt P51452); experiment: Inhibition of human recombinant VHR expressed in Escherichia coli using pNPP as substrate preincubated for 10 mins followed by substrate addition measured after 30 mins
[2] = biological target: T1, Receptor-type tyrosine-protein phosphatase C (Homo sapiens, UniProt P08575); experiment: Inhibition of human recombinant CD45 using pNPP as substrate preincubated for 10 mins followed by substrate addition measured after 30 mins
T1 sequence (P08575 whole entry): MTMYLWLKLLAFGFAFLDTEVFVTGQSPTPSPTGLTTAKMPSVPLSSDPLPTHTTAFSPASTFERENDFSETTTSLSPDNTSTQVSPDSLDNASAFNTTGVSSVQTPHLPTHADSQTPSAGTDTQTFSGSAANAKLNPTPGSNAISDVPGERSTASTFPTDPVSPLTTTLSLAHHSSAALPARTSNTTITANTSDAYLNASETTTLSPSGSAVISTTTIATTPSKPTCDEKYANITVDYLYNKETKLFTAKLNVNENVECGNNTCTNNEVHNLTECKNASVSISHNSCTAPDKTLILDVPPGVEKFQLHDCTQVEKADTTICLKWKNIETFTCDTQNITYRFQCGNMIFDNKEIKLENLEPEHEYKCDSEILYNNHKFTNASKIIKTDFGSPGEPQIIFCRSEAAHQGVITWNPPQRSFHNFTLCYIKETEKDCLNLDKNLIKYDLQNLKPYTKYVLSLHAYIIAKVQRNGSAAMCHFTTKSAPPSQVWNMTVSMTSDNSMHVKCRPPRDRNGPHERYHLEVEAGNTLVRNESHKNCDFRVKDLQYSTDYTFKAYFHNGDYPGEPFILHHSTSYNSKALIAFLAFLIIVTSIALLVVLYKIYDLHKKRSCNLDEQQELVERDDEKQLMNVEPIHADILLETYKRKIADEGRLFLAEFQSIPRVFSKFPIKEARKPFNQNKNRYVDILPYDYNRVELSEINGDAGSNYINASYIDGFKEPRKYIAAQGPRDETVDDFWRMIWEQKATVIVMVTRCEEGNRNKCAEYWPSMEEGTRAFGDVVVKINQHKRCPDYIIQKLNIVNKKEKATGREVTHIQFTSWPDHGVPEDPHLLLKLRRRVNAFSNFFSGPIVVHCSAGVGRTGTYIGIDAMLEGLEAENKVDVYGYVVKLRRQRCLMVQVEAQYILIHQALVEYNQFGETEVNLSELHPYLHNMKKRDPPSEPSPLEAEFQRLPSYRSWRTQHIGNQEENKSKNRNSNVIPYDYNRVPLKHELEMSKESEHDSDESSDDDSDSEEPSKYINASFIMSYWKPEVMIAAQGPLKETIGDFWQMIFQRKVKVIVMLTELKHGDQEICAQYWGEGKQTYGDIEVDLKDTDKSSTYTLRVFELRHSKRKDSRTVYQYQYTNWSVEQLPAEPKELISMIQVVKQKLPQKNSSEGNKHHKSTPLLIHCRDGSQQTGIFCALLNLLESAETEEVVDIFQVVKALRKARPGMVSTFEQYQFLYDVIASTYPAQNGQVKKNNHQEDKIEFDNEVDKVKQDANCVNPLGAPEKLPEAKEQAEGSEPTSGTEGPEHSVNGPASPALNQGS

[3] = biological target: T2, Tyrosine-protein phosphatase non-receptor type 2 (Homo sapiens, UniProt P17706); experiment: Inhibition of human recombinant TCPTP (1 to 317 residues) expressed in Escherichia coli using pNPP as substrate preincubated for 10 mins followed by substrate addition measured after 30 mins
T2 sequence (P17706 whole entry): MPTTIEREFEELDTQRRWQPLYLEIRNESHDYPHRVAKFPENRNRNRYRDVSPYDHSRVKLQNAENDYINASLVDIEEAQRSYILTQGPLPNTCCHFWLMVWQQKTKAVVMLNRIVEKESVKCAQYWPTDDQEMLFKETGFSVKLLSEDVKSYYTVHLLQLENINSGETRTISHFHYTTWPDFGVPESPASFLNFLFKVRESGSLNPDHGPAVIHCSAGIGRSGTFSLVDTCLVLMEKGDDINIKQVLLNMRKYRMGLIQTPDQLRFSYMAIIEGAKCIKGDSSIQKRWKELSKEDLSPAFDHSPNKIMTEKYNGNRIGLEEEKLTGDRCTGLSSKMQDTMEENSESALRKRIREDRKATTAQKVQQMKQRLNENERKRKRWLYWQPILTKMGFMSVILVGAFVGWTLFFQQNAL

[4] = biological target: T3, Tyrosine-protein phosphatase non-receptor type 1 (Homo sapiens, UniProt P18031); experiment: Inhibition of human recombinant PTP1B (1 to 322 residues) expressed in Escherichia coli using pNPP as substrate preincubated for 10 mins followed by substrate addition measured after 30 mins
T3 sequence (P18031 whole entry): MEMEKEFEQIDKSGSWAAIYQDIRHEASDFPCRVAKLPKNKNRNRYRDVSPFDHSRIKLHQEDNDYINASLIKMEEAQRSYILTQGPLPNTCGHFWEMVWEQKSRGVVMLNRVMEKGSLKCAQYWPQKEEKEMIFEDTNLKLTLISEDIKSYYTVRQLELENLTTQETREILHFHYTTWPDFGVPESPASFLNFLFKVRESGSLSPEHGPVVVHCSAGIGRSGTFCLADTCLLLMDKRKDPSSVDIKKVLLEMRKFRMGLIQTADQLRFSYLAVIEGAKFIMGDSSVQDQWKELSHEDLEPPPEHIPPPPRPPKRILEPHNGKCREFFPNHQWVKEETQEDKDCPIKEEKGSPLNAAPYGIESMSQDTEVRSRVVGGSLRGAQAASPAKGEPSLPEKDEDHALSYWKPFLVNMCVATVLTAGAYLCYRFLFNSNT

[5] = biological target: RAC-alpha serine/threonine-protein kinase (Homo sapiens) (UniProt P31749); experiment: Induction of Akt phosphorylation in human Huh7 cells up to 50 uM measured after 2 hrs by Western blot method; format: cell-based
[6] = biological target: T4, Tyrosine-protein phosphatase non-receptor type 1 (Homo sapiens) (UniProt P18031); experiment: Inhibition of PTP1B in human Huh7 cells assessed as increase in insulin-stimulated Akt phosphorylation preincubated for 1 to 2 hrs followed by insulin addition measured after 5 mins by Western blot method; format: cell-based
T4 sequence (whole entry): T3 sequence (P18031 whole entry)

[7] = biological target: RAC-alpha serine/threonine-protein kinase (Homo sapiens) (UniProt P31749); experiment: Induction of Akt phosphorylation in human Huh7 cells measured after 2 hrs by Western blot method; format: cell-based
[8] = biological target: RAC-alpha serine/threonine-protein kinase (Homo sapiens) (UniProt P31749); experiment: Activation of AKT in human Huh7 cells assessed as increase in insulin-stimulated Akt phosphorylation preincubated for 1 to 2 hrs followed by insulin addition measured after 5 mins by Western blot method; format: cell-based

Chain of RAC-alpha serine/threonine-protein kinase (Homo sapiens) (P31749 whole entry): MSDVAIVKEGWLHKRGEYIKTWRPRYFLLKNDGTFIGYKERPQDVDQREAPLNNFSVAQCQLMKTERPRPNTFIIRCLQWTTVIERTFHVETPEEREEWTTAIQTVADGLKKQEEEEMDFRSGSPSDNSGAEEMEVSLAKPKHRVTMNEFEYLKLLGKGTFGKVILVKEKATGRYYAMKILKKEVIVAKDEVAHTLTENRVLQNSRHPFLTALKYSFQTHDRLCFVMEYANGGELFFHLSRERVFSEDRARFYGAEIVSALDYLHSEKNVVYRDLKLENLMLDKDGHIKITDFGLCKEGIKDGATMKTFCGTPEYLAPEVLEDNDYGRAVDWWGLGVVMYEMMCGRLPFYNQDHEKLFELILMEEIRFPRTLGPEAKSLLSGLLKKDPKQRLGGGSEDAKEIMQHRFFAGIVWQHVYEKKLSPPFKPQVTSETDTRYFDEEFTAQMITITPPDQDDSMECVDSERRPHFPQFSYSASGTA
Chain of Dual specificity protein phosphatase 3 (P51452 whole entry): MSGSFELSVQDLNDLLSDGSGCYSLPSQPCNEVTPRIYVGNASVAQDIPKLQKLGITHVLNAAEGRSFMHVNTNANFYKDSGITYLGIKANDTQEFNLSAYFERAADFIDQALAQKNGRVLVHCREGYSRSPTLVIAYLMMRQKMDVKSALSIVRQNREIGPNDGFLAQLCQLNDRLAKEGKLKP

Row | IC50 [1] | IC50 [2] | IC50 [3] | IC50 [4] | Activity [5] | inhibition [6] | Activity [7] | Activity [8] | SMILES
1 | 13 µM | > 16 µM | > 16 µM | 15 µM | – | – | – | – | C/C(=C\C[n+]1cn(C)c2ncnc(N)c21)CC[C@]1(C)[C@@H](C)CC[C@@]2(C)C(COC(=O)c3cc(Br)c[nH]3)=CCC[C@@H]12
2 | – | – | – | – | inactive | Dose-dependent effect | Dose-dependent effect | – | C/C(=C\Cn1c[n+](C)c2ncnc(N)c21)CC[C@]1(C)[C@@H](C)CC[C@@]2(C)C(COC(=O)c3cc(Br)c[nH]3)=CCC[C@@H]12
3 | > 19 µM | > 19 µM | > 19 µM | > 19 µM | inactive | – | Dose-dependent effect | Dose-dependent effect | C/C(=C\Cn1c[n+](C)c2ncnc(N)c21)CC[C@]1(C)[C@@H](C)CC[C@@]2(C)C(COC(=O)c3ccc[nH]3)=CCC[C@@H]12
